Source: PMC6259277, “Synthesis, Gastroprotective Effect and Cytotoxicity of New Amino Acid Diterpene Monoamides and Diamides” (Molecules, 2010)

Assays:
[1] = Cytotoxicity, neutral red uptake assay, AGS; assay type: cell-based; conditions: human, AGS gastric adenocarcinoma cells, confluent monolayers, confluent cultures, 0-1000 µM, mean ± SD
Method: (§1) Human gastric adenocarcinoma cells AGS (ATCC CRL-1739) were grown as monolayers in Ham F-12 medium containing 1.0 mM L-glutamine and 1.5 g/L sodium bicarbonate, supplemented with 10% heat-inactivated FBS, 100 IU/mL penicillin and 100 µg/mL streptomycin in a humidified incubator with 5% CO2 in air at 37 °C. The cell passage was maintained between 42 and 48. The medium was changed every 2 days. Confluent cultures of MRC-5, AGS and Hep G2 cells were treated with medium containing the compounds at concentrations ranging from 0 up to 1000 µM. The products were first dissolved in DMSO and then in the corresponding culture medium supplemented with 2% FBS. The final content of DMSO in the test medium and controls was 1%. Cells were exposed for 24 h to the assayed compounds. Untreated cells served as controls. Each concentration was tested in quadruplicate together with the control and repeated three times in separate experiments. At the end of the incubation, the neutral red uptake (NRU) assay was carried out to determine cell viability. To calculate the IC50 values (concentration that produces a 50% inhibitory effect on the evaluated parameter) the results were transformed to percentage of controls and the IC50 value was graphically obtained from the dose-response curves.

[2] = Cytotoxicity, neutral red uptake assay, MRC-5; assay type: cell-based; conditions: human, MRC-5 normal lung fibroblasts, confluent monolayers, confluent cultures, 0-1000 µM, mean ± SD
Method: (§2) Human normal lung fibroblasts MRC-5 (ATCC CCL-171) and Hep G2 cells (ATCC HB-8065) were grown as monolayers in minimum essential Eagle´s medium (MEM), with Earle's salts, 2.0 mM L-glutamine (Sigma Chemical Co.) and 2.0 g/L sodium bicarbonate (Sigma Chemical Co.), supplemented with 10% heat-inactivated fetal bovine serum (FBS), 100 IU/mL penicillin and 100 µg/mL streptomycin in a humidified incubator with 5% CO2 in air at 37 °C. Cell passage was maintained between 10 and 16 for MRC-5 and between 79 and 82 for Hep G2 cells. The medium was changed every 2 days. Culture media, antibiotics and FBS were obtained from Invitrogen Corp.
as §1, with “Confluent” for “Human gastric adenocarcinoma cells AGS (ATCC CRL-1739) were grown as monolayers in Ham F-12 medium containing 1.0 mM L-glutamine and 1.5 g/L sodium bicarbonate, supplemented with 10% heat-inactivated FBS, 100 IU/mL penicillin and 100 µg/mL streptomycin in a humidified incubator with 5% CO2 in air at 37 °C. The cell passage was maintained between 42 and 48. The medium was changed every 2 days. Confluent”

[3] = Cytotoxicity, neutral red uptake assay, Hep G2; assay type: cell-based; conditions: human, Hep G2 cells, confluent monolayers, confluent cultures, 0-1000 µM, mean ± SD
Method: as §2
as §1, with “Confluent” for “Human gastric adenocarcinoma cells AGS (ATCC CRL-1739) were grown as monolayers in Ham F-12 medium containing 1.0 mM L-glutamine and 1.5 g/L sodium bicarbonate, supplemented with 10% heat-inactivated FBS, 100 IU/mL penicillin and 100 µg/mL streptomycin in a humidified incubator with 5% CO2 in air at 37 °C. The cell passage was maintained between 42 and 48. The medium was changed every 2 days. Confluent”

[4] = test system: ethanol/HCl-induced gastric lesions; assay: Ethanol/HCl-induced gastric lesion (ulcer) model in mice; assay type: in vivo; conditions: for Gastroprotective effect: Lesion index: mean ± SD
Method: The gastroprotective activity of the compounds was determined in the ethanol/HCl-induced lesion model in mice. The purity of the tested compounds was higher than 95% by NMR analysis. Male Swiss albino mice weighing 30 ± 3 g were used. Animals were fed on certified Champion diet with free access to water under standard conditions of 12 h dark-light period, 50% relative humidity and 22 °C room temperature. Mice were randomly distributed into groups of eight animals each and fasted for 24 h with free access to water previous to the experiment. Fasting prior to ulcerogenic assays was used because 0.2 mL of the reference antisecretory drug lansoprazole (2-[[[3-methyl-4-(2,2,2-trifluroethoxy)-2-pyridyl]methyl]sulfinyl]benzimidazole) and the amides were administered orally. To keep the animal number to a minimum, dose-response studies were performed with the leucine derivatives 13 and 18 to set the conditions for single-dose comparison of gastroprotective effect. For the selected parent compounds, three doses were used: 25, 50 and 100 mg/kg. Fifty min after oral administration of the compounds, lansoprazole (20 mg/kg) or the vehicle (12% Tween 80, 10 mL/kg), all groups were orally treated with 0.2 mL of a solution containing 60% ethanol/0.3 M HCl (ethanol/HCl) for gastric lesion induction. Animals were sacrificed by cervical dislocation 1 h after the administration of ethanol/HCl, and the stomachs excised and inflated by injection of 5% formalin (1 mL). The ulcerated stomachs were fixed in 5% formalin for 30 min and opened along the greater curvature. The length (mm) of each lesion was measured, and the lesion index expressed as the sum of the length of all lesions. For comparison purposes, the products 1-5, 7-12, 14-16, 19 and 20 were assessed at a single oral dose of 25 mg/kg. The protocols were approved by the Universidad de Talca Institutional Animal Care and Use Committee, which follows the recommendations of the Canadian Council on Animal Care. Tween 80 and lansoprazole (> 98% purity by HPLC) were purchased from Sigma Chemical Co.
Results were expressed as the mean ± SD. In all experiments, statistical differences between several treatments and their respective control were determined by one-way analysis of variance (ANOVA) and when the F value was significant, post hoc differences were determined by the Dunnett's multiple comparison test. The level of significance was set at P < 0.05. All statistical analyses were performed using the software Statistica 5.1 (StatSoft, Inc.) and Statistical Package S-Plus 2000.

[5] = Mus musculus, po, single oral dose 25 mg/kg, compared with untreated controls, read-out: Gastroprotective effect: % Lesion reduction
[6] = single oral dose 25 mg/kg, sum of lesion lengths

Row | Structure (SMILES) | IC50 at 24 h [1] | IC50 at 24 h [2] | IC50 at 24 h [3] | inhibition in vivo at 25 mg/kg [4, 5] | gastric lesion reduction at the higher doses ([4]; dose-response study, higher oral doses (50 and 100 mg/kg)) | Gastroprotective effect: Lesion index ([4]; single oral dose 25 mg/kg, sum of lesion lengths, 25 mg/kg) | Gastroprotective effect: Lesion index [4, 6] | inhibition in vivo at 20 mg/kg ([4]; Mus musculus, po, reference drug at 20 mg/kg oral, compared with untreated controls, read-out: Gastroprotective effect: % Lesion reduction) | Gastroprotective effect: Lesion index ([4]; reference drug at 20 mg/kg oral, 20 mg/kg) | Gastroprotective effect: Lesion index ([4]; reference drug at 20 mg/kg oral, listed as lansoprazole, 20 mg/kg)
1 | C=C1CCC2[C@](C)(CCC[C@]2(C)C(=O)N[C@@H](CC(C)C)C(=O)OC)[C@H]1CC[C@@H](C)CC(=O)N[C@@H](CC(C)C)C(=O)OC (stereo partly shown) [Compound 18, Labd-8(17)-en-15,19-dioic acid, 15,19-dileucyl methyl ester amide] | > 1000 µM | 495 ± 35 µM | > 1000 µM | ~49.6% | 79-89% | 23.2 ± 12.9 mm |  |  |  | 
2 | C=C1CCC2[C@](C)(CCC[C@]2(C)C(=O)N2CCC[C@H]2C(=O)OC)[C@H]1CC[C@@H](C)CC(=O)N1CCC[C@H]1C(=O)OC (stereo partly shown) [Compound 19, Labd-8(17)-en-15,19-dioic acid, 15,19-diprolyl methyl ester amide] | 206 ± 10 µM | 267 ± 14 µM | 316 ± 16 µM | 87.8% |  |  | 5.6 ± 3.2 mm |  |  | 
3 | C=C1CCC2[C@](C)(CCC[C@]2(C)C(=O)N[C@@H](Cc2c[nH]c3ccccc23)C(=O)OCC)[C@H]1CC[C@@H](C)CC(=O)N[C@@H](Cc1c[nH]c2ccccc12)C(=O)OCC (stereo partly shown) [Compound 20, Labd-8(17)-en-15,19-dioic acid, 15,19-ditryptophanyl ethyl ester amide] | > 1000 µM | > 1000 µM | > 1000 µM | 68.9% |  |  | 14.3 ± 10.7 mm |  |  | 
4 | Cc1c(OCC(F)(F)F)ccnc1C[S+]([O-])c1nc2ccccc2[nH]1 (stereo not shown) [Lansoprazole, 2-[[[3-methyl-4-(2,2,2-trifluroethoxy)-2-pyridyl]methyl]sulfinyl]benzimidazole, reference compound] | 162 ± 6 µM | 306 ± 11 µM | 221 ± 9 µM |  |  |  |  | 79.3% | 9.5 ± 2.5 mm | 9.5 ± 2.5 mm
